Patent US8404664B2, “Phosphonated Rifamycins and uses thereof for the prevention and treatment of bone and joint infections” (Targanta Therapeutics, Inc., priority 2005, dated 2013)
In brackets after ≈: the same amount, converted by molar mass.

Key:
S. aureus ATCC 13709 = experiment: Antibacterial susceptibility (MIC), NCCLS broth microdilution; format: cell-based; conditions: for Antibacterial activity (in words, summary of Table 1): summary over the strains of Table 1
Summary of the method: (§1)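 Two-fold serial dilutions in DMSO tested in cation-adjusted Mueller Hinton broth per NCCLS M26-A, 5×10^5 c.f.u./mL inoculum, 1.25% final DMSO, duplicates.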

[1] = test system: S. aureus BK85 (Fluoroquinolone resistant MRSA); experiment: as above; format: cell-based
Summary of the method: as §1

S. aureus RN4220 = experiment: as above; format: cell-based; conditions: CAMHB, 37° C., 18 h
Summary of the method: as §1

[2] = test system: S. aureus ATCC 43300 (Fluoroquinolone sensitive MRSA); experiment: as above; format: cell-based
Summary of the method: as §1

[3] = test system: E. coli LBB925 (tolC mutant); experiment: as above; format: cell-based; conditions: for Minimum inhibitory concentration, E. coli LBB925: tolC mutant
[4] = test system: S. aureus ATCC 13709 Novobiocin and Rifampicin resistant variant; experiment: microbe, parasite or virus in culture; format: cell-based; conditions: for Minimum inhibitory concentration, S. aureus ATCC 13709 variant: Novobiocin and Rifampicin resistant variant
Summary of the method: as §1

[5] = test system: S. aureus ATCC 13709 Novobiocin resistant mutant (bone infection); experiment: Prophylactic efficacy in rat model of S. aureus bone infection; format: in vivo; conditions: for Prophylactic effect (in words): rat bone infection, doses and times of Table 3, t-test p<0.05; for Measured bacterial titer: rat tibia 24 h postinfection
[6] = Regeneration of drug from bone powder-bound prodrug; format: in vitro ADME; conditions: for % Conversion of bone-bound prodrug to parent drug: 24 h incubation, 37° C.; for Impact of the medium on the rate of regeneration of parent drug (in words): serum compared to PBS
[7] = single dose 11 mg/kg parent drug equivalent, 3 days prior to infection

Compound	Minimum inhibitory concentration, S. aureus ATCC 13709 (S. aureus ATCC 13709)	Antibacterial activity (in words, summary of Table 1) (S. aureus ATCC 13709)	Minimum inhibitory concentration, S. aureus BK85 [1]	Minimum inhibitory concentration, S. aureus RN4220 (S. aureus RN4220)	Minimum inhibitory concentration, S. aureus ATCC 43300 [2]	Minimum inhibitory concentration, E. coli LBB925 [3]	Activity against the Rifampicin resistant variant of S. aureus ATCC13709 (in words) [4]	Minimum inhibitory concentration, S. aureus ATCC 13709 variant [4]	Prophylactic effect (in words) [5]	% Conversion of bone-bound prodrug to parent drug ([6]; 50% Human Serum)	% Conversion of bone-bound prodrug to parent drug ([6]; 50% Rat Serum)	% Conversion of bone-bound prodrug to parent drug ([6]; PBS)	Impact of the medium on the rate of regeneration of parent drug (in words) [6]	Measured bacterial titer [5, 7]	Regeneration of parent drug once bound to bone (in words) [6]	further results
CO[C@H]1/C=C/O[C@@]2(C)Oc3c(C)c(O)c4c(=O)c(c5oc6cc(N7CCN(CCC(=O)c8ccc(OCCCC(P(=O)(O)O)P(=O)(O)O)cc8)CC7)cc(O)c6nc-5c4c3C2=O)NC(=O)/C(C)=C\C=C\[C@H](C)[C@H](O)[C@@H](C)[C@@H](O)[C@@H](C)[C@H](OC(C)=O)[C@@H]1C [Compound 71]	0.0019 µg/mL (≈ 0.00152 µM)	very low MICs	0.0019 µg/mL (≈ 0.00152 µM)	0.0039 µg/mL (≈ 0.00312 µM)	0.0019 µg/mL (≈ 0.00152 µM)	>128 µg/mL	complete lack of activity	128 µg/mL (≈ 102 µM)	statistically significant	0.46%	0.38%	0.1%	significant acceleration			Measured bacterial titer ([5]; single dose 20 mg/kg parent drug equivalent, 3 days prior to infection): 2.77 ± 1.00 Log CFU/g of bone
CO[C@H]1/C=C/O[C@@]2(C)Oc3c(C)c(O)c4c(=O)c(c5oc6cc(N7CCN(CC(C)C)CC7)cc(O)c6nc-5c4c3C2=O)NC(=O)/C(C)=C\C=C\[C@H](C)[C@H](OC(=O)CCCOC(=O)CCC(=O)NC(P(=O)(O)O)P(=O)(O)O)[C@@H](C)[C@@H](O)[C@@H](C)[C@H](OC(C)=O)[C@@H]1C [Compound 81, 21-O-(4-((3-(bisphosphonomethyl)carbamoyl)propanoyloxy)butanoyl)-1′,4-Didehydro-1-deoxy-1,4-dihydro-3′-hydroxy-5′-[4-(2-methylpropyl)-1-piperazinyl]-1-oxorifamycin VIII]	0.001 µg/mL (≈ 0.000769 µM)	very low MICs	0.001 µg/mL (≈ 0.000769 µM)	0.001 µg/mL (≈ 0.000769 µM)	0.001 µg/mL (≈ 0.000769 µM)	>128 µg/mL	complete lack of activity	>128 µg/mL	statistically significant		2.50%	1.98%	not significantly impacted			Measured bacterial titer ([5]; single dose 10 mg/kg parent drug equivalent, 3 days prior to infection): 2.05 ± 0.06 Log CFU/g of bone
CO[C@H]1/C=C/O[C@@]2(C)Oc3c(C)c(O)c4c(O)c(c(/C=N/N5CCN(CCO)CC5)c(O)c4c3C2=O)NC(=O)/C(C)=C\C=C\[C@H](C)[C@H](O)[C@@H](C)[C@@H](O)[C@@H](C)[C@H](OC(C)=O)[C@@H]1C [Compound 9, 3-(((4-(2-hydroxyethyl)-1-piperazinyl)imino)methyl)rifamycin]														6.38 ± 0.90 Log CFU/g of bone		MIC (S. aureus ATCC 13709; Staphylococcus aureus, ATCC13709, read-out: Minimum inhibitory concentration, S. aureus ATCC 13709): 0.016 µg/mL (≈ 0.0188 µM); MIC ([1]; Staphylococcus aureus, read-out: Minimum inhibitory concentration, S. aureus BK85): 0.016 µg/mL (≈ 0.0188 µM); MIC (S. aureus RN4220; Staphylococcus aureus, RN4220, read-out: Minimum inhibitory concentration, S. aureus RN4220): 0.016 µg/mL (≈ 0.0188 µM); MIC ([2]; Staphylococcus aureus, read-out: Minimum inhibitory concentration, S. aureus ATCC 43300): 0.016 µg/mL (≈ 0.0188 µM); MIC ([3]; Escherichia coli, read-out: Minimum inhibitory concentration, E. coli LBB925): 16 µg/mL (≈ 18.8 µM)
CO[C@H]1/C=C/O[C@@]2(C)Oc3c(C)c(O)c4c(=O)c(c5oc6cc(N7CCN(CCOC(=O)CCC(=O)NC(P(=O)(O)O)P(=O)(O)O)CC7)cc(O)c6nc-5c4c3C2=O)NC(=O)/C(C)=C\C=C\[C@H](C)[C@H](O)[C@@H](C)[C@@H](O)[C@@H](C)[C@H](OC(C)=O)[C@@H]1C.N.N [Compound 62]	0.0039 µg/mL	very low MICs	0.0078 µg/mL	0.0078 µg/mL	0.0078 µg/mL	>128 µg/mL	complete lack of activity	>128 µg/mL	statistically significant	0.86%	0.91%	0.21%	significant acceleration		appreciable rates of regeneration	Measured bacterial titer ([5]; single dose 20 mg/kg parent drug equivalent, 2 days prior to infection): 1.98 ± 0.06 Log CFU/g of bone
3-(((4-(2-(3-((bisphosphonomethyl)carbamoyl)propanoyloxy)ethyl)-1-piperazinyl)imino)methyl)rifamycin [Compound 11]	0.125 µg/mL		0.25 µg/mL	0.25 µg/mL	0.25 µg/mL	32 µg/mL			statistically significant	1.01%	1.01%	0.97%	not significantly impacted	3.01 ± 0.47 Log CFU/g of bone	appreciable rates of regeneration	
